Experimental data: PubChem BioAssay AID328 (DTP/NCI, 2004)
Toxic doses and inconclusive results are not listed. How the source made its calls: active means survival T/C of 150% or more; inactive means T/C below 125% in these data.

Test system: BDF1 mice, P388 leukemia ip, median survival T/C
Assay: NCI In Vivo Anticancer Drug Screen. Data for tumor model P388 Leukemia (intraperitoneal) in B6D2F1 (BDF1) mice
Conditions: endpoint: median survival time, higher = longer survival
Summary of the method: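 Each value expresses how treatment altered survival: treated-mouse outcome over vehicle-mouse outcome, both groups bearing the transplanted tumour.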

[1] = dose: 50.0 mg/kg/injection, schedule: Q04DX003 (ip), vehicle: saline
[2] = dose: 50.0 mg/kg/injection, schedule: Q01DX009 (ip), vehicle: saline
[3] = dose: 100.0 mg/kg/injection, schedule: Q01DX009 (ip), vehicle: Klucel (hydroxypropylcellulose) (HPC)
[4] = dose: 100.0 mg/kg/injection, schedule: Q04DX003 (ip), vehicle: Klucel (hydroxypropylcellulose) (HPC)
[5] = dose: 200.0 mg/kg/injection, schedule: Q01DX009 (ip), vehicle: Klucel (hydroxypropylcellulose) (HPC)
[6] = dose: 200.0 mg/kg/injection, schedule: Q04DX003 (ip), vehicle: Klucel (hydroxypropylcellulose) (HPC)
[7] = dose: 400.0 mg/kg/injection, schedule: Q01DX009 (ip), vehicle: Klucel (hydroxypropylcellulose) (HPC)
[8] = dose: 400.0 mg/kg/injection, schedule: Q04DX003 (ip), vehicle: Klucel (hydroxypropylcellulose) (HPC)
[9] = dose: 100.0 mg/kg/injection, schedule: Q04DX003 (ip), vehicle: saline with Tween-80
[10] = dose: 50.0 mg/kg/injection, schedule: Q01DX009 (ip), vehicle: saline with Tween-80
[11] = dose: 100.0 mg/kg/injection, schedule: Q01DX009 (ip), vehicle: saline with Tween-80
[12] = dose: 200.0 mg/kg/injection, schedule: Q01DX009 (ip), vehicle: saline with Tween-80
[13] = dose: 3.12 mg/kg/injection, schedule: Q01DX009 (ip), vehicle: saline
[14] = dose: 6.25 mg/kg/injection, schedule: Q01DX009 (ip), vehicle: saline
[15] = dose: 12.5 mg/kg/injection, schedule: Q01DX009 (ip), vehicle: saline

Measured: T/C

CCCN(CCC)CCCCO
inactive: dose: 22.0 mg/kg/injection, schedule: Q04DX003 (ip), vehicle: saline 104 % of control | dose: 33.0 mg/kg/injection, schedule: Q04DX003 (ip), vehicle: saline 109 % of control | [1] 104 % of control | dose: 75.0 mg/kg/injection, schedule: Q04DX003 (ip), vehicle: saline 104 % of control

NC(=O)c1c(Br)n(C2OC(CO)C(O)C2O)c2ncnc(N)c12 (stereo not drawn)
inactive: [2] 95 % of control

COC(=O)c1cc(C)c(Br)c(N)c1
inactive: [3] 105 % of control | [4] 109 % of control | [5] 100 % of control | [6] 104 % of control | [7] 100 % of control | [8] 109 % of control

COc1cc2c(cc1OC)[C@]13C[C@H](OC)CC=C1CCN3CCC2
inactive: dose: 10.0 mg/kg/injection, schedule: Q01DX009 (ip), vehicle: alcohol 86 % of control | dose: 20.0 mg/kg/injection, schedule: Q01DX009 (ip), vehicle: alcohol 100 % of control | dose: 40.0 mg/kg/injection, schedule: Q01DX009 (ip), vehicle: alcohol 100 % of control | dose: 80.0 mg/kg/injection, schedule: Q01DX009 (ip), vehicle: alcohol 95 % of control

CN(C)c1ccc(/C=C/c2ccc3ccccc3n2)cc1
inactive: dose: 25.0 mg/kg/injection, schedule: Q04DX003 (ip), vehicle: saline with Tween-80 86 % of control | dose: 50.0 mg/kg/injection, schedule: Q04DX003 (ip), vehicle: saline with Tween-80 86 % of control | [9] 86 % of control

CP(c1ccccc1)c1ccccc1
inactive: dose: 50.0 mg/kg/injection, schedule: Q01DX009 (ip), vehicle: Klucel (hydroxypropylcellulose) (HPC) 109 % of control | dose: 50.0 mg/kg/injection, schedule: Q04DX003 (ip), vehicle: Klucel (hydroxypropylcellulose) (HPC) 113 % of control | [4] 113 % of control | dose: 133.0 mg/kg/injection, schedule: Q01DX009 (ip), vehicle: Klucel (hydroxypropylcellulose) (HPC) 100 % of control | [5] 107 % of control | [6] 104 % of control | dose: 300.0 mg/kg/injection, schedule: Q01DX009 (ip), vehicle: Klucel (hydroxypropylcellulose) (HPC) 123 % of control

COC(=O)C(C)(OC)OC
inactive: dose: 100.0 mg/kg/injection, schedule: Q01DX009 (ip), vehicle: saline 100 % of control | dose: 200.0 mg/kg/injection, schedule: Q01DX009 (ip), vehicle: saline 100 % of control | dose: 400.0 mg/kg/injection, schedule: Q01DX009 (ip), vehicle: saline 100 % of control

OC1CCC2(CC1)SCCS2
inactive: dose: 100.0 mg/kg/injection, schedule: Q01DX001 (ip), vehicle: saline with Tween-80 96 % of control | dose: 200.0 mg/kg/injection, schedule: Q01DX001 (ip), vehicle: saline with Tween-80 103 % of control | dose: 400.0 mg/kg/injection, schedule: Q01DX001 (ip), vehicle: saline with Tween-80 101 % of control

COc1ccc(C2NC(=O)NC2=O)cc1OC (stereo not drawn)
inactive: dose: 50.0 mg/kg/injection, schedule: Q01DX001 (ip), vehicle: saline sonified 100 % of control | dose: 100.0 mg/kg/injection, schedule: Q01DX001 (ip), vehicle: saline sonified 100 % of control | dose: 200.0 mg/kg/injection, schedule: Q01DX001 (ip), vehicle: saline sonified 100 % of control

O=C(NCc1cnccn1)Nc1ccccc1
inactive: dose: 25.0 mg/kg/injection, schedule: Q04DX003 (ip), vehicle: saline 104 % of control | [1] 103 % of control | dose: 100.0 mg/kg/injection, schedule: Q04DX003 (ip), vehicle: saline 87 % of control | dose: 200.0 mg/kg/injection, schedule: Q04DX003 (ip), vehicle: saline 100 % of control | dose: 400.0 mg/kg/injection, schedule: Q04DX003 (ip), vehicle: saline 100 % of control

N#CCCN(CCC#N)/N=N\c1nc[nH]c1C(N)=O
inactive: [10] 101 % of control | [11] 105 % of control | [12] 113 % of control | dose: 400.0 mg/kg/injection, schedule: Q01DX009 (ip), vehicle: saline with Tween-80 113 % of control

CC(C)(C(Cl)Cl)S(=O)(=O)O (tested in a mixture with another compound)
inactive: dose: 75.0 mg/kg/injection, schedule: Q01DX009 (ip), vehicle: saline with Tween-80 100 % of control | dose: 75.0 mg/kg/injection, schedule: Q04DX003 (ip), vehicle: saline with Tween-80 110 % of control | dose: 150.0 mg/kg/injection, schedule: Q01DX009 (ip), vehicle: saline with Tween-80 100 % of control | dose: 150.0 mg/kg/injection, schedule: Q04DX003 (ip), vehicle: saline with Tween-80 100 % of control | dose: 300.0 mg/kg/injection, schedule: Q01DX009 (ip), vehicle: saline with Tween-80 109 % of control | dose: 300.0 mg/kg/injection, schedule: Q04DX003 (ip), vehicle: saline with Tween-80 110 % of control

CC1(C)SC(C)(C)N(C=O)C1C(=O)O (stereo not drawn)
inactive: [3] 90 % of control | [4] 91 % of control | [5] 109 % of control | [6] 95 % of control | [7] 90 % of control | [8] 91 % of control

OC(CC(O)(C(F)(F)F)C(F)(F)F)c1ccccc1 (stereo not drawn)
inactive: [9] 100 % of control | dose: 200.0 mg/kg/injection, schedule: Q04DX003 (ip), vehicle: saline with Tween-80 118 % of control | dose: 400.0 mg/kg/injection, schedule: Q04DX003 (ip), vehicle: saline with Tween-80 113 % of control

CCCCCC(CN(C)C)C(O)/C=C/c1ccccc1Cl (stereo not drawn)
inactive: [13] 110 % of control | [14] 100 % of control | [15] 105 % of control | dose: 25.0 mg/kg/injection, schedule: Q01DX009 (ip), vehicle: saline 107 % of control | [2] 117 % of control

CCOC(=O)CNCc1ccc(C)cc1
inactive: dose: 50.0 mg/kg/injection, schedule: Q01DX009 (ip), vehicle: water 100 % of control | dose: 100.0 mg/kg/injection, schedule: Q01DX009 (ip), vehicle: water 99 % of control | dose: 100.0 mg/kg/injection, schedule: Q04DX003 (ip), vehicle: water 91 % of control | dose: 200.0 mg/kg/injection, schedule: Q01DX009 (ip), vehicle: water 103 % of control | dose: 200.0 mg/kg/injection, schedule: Q04DX003 (ip), vehicle: water 93 % of control | dose: 400.0 mg/kg/injection, schedule: Q01DX009 (ip), vehicle: water 108 % of control | dose: 400.0 mg/kg/injection, schedule: Q04DX003 (ip), vehicle: water 100 % of control

O=C1NC2(CCCCC2)C(=O)N1CCN(CCCl)CCCl
active: dose: 0.39 mg/kg/injection, schedule: Q01DX009 (ip), vehicle: saline 196 % of control | dose: 0.78 mg/kg/injection, schedule: Q01DX009 (ip), vehicle: saline 189 % of control | dose: 1.56 mg/kg/injection, schedule: Q01DX009 (ip), vehicle: saline 222 % of control | [13] 291 % of control | [14] 291 % of control
inactive: [15] 120 % of control

O=C(NO)/C(Cc1ccccc1)=N/O
inactive: [10] 99 % of control | [11] 104 % of control | [12] 98 % of control

CCCCOC(=S)Nc1ccccc1
inactive: dose: 50.0 mg/kg/injection, schedule: Q01DX009 (ip), vehicle: other 100 % of control | dose: 100.0 mg/kg/injection, schedule: Q01DX009 (ip), vehicle: other 99 % of control

O=S(=O)(O)SCCNCCCCCC1CCCCC1
inactive: dose: 0.75 mg/kg/injection, schedule: Q01DX009 (ip), vehicle: saline 100 % of control | dose: 1.5 mg/kg/injection, schedule: Q01DX009 (ip), vehicle: saline 100 % of control | dose: 3.0 mg/kg/injection, schedule: Q01DX009 (ip), vehicle: Klucel (hydroxypropylcellulose) (HPC) 100 % of control | dose: 3.0 mg/kg/injection, schedule: Q01DX009 (ip), vehicle: saline 100 % of control | dose: 6.0 mg/kg/injection, schedule: Q01DX009 (ip), vehicle: Klucel (hydroxypropylcellulose) (HPC) 115 % of control | dose: 6.0 mg/kg/injection, schedule: Q01DX009 (ip), vehicle: saline 105 % of control

COc1ccc(C2NC(=S)NC3=C2CCCC3)cc1 (stereo not drawn)
inactive: [10] 96 % of control | [11] 107 % of control | [12] 98 % of control

CC1=Nc2ccccc2C(=O)N(C)N1
inactive: [10] 100 % of control | [11] 104 % of control | [12] 97 % of control
